Measured values from patent publication US7015202B2, “Use of glycyrrhizin and its derivatives as MCP-1 production inhibitors” (Minophagen Pharmaceutical Co., Ltd., priority 2002, dated 2006).

Experiments:
MCP-1 [1] = test: MCP-1 production by peripheral blood mononuclear cells from burn patients (ELISA); assay type: cell-based, human; details: 100 μg/ml, 24 hours, FIG. 2
Experimental: Experimental Method Peripheral blood was collected from burn patients (third-degree burns covering 45–78% of the body surface), and peripheral blood mononuclear cells were isolated with Ficoll-Hypaque. 1×10^6 cells/ml of the peripheral blood mononuclear cells were stimulated for 24 hours with 100 μg/ml of glycyrrhizin. Furthermore, mononuclear cells from healthy subjects were cultured under the same conditions for the control. The amount of MCP-1 in the culture supernatant was measured with the Human MCP-1 BD OptEIA ELISA Kit.

MCP-1 [2] = test: MCP-1 production by peripheral blood mononuclear cells from AIDS patients (ELISA); assay type: cell-based, human; details: 0.1 to 100 μg/ml, 24 hours, FIG. 3
Experimental: Peripheral blood was collected from AIDS patients and the fraction containing peripheral blood mononuclear cells was isolated using Ficoll-Hypaque. Mononuclear cells were inoculated into each well of a 96-well flat-bottom microtiter plate at a concentration of 1×10^6 cells/ml. The medium was the same as that used in Example 1. The cells were cultured using an incubator maintained at a temperature of 37° C. and CO2 concentration of 5%.
Glycyrrhizin solution was added to each well except the control well at a final concentration of 0.1 to 100 μg/ml followed by culturing for 24 hours.
Following addition of glycyrrhizin, the culture supernatant was recovered and the amount of MCP-1 in the supernatant was quantified by ELISA. A commercially available kit (trade name: Human MCP-1 BD OptEIA ELISA Kit) was used for ELISA.

HSV-1 = test: Sensitivity to HSV-1 infection in burn mice; assay type: in vivo
Experimental: Experimental Method One day after subjecting normal mice and MCP-1 knockout mice to third degree burns over 15% of their body surface area, the animals were intraperitoneally infected with HSV-1 in an amount of 1×10^1 to 1×10^6 pfu/kg body weight. For the control, normal mice were infected with HSV-1 under the same conditions. In addition, MCP-1 (50 ng/mouse) was administered subcutaneously to normal mice 2 hours before infection and 12 and 24 hours after infection. Anti-MCP-1 monoclonal antibody (10 μg/mouse) was administered subcutaneously to the burn mice 2 hours before infection and 12 and 24 hours after infection.

HIV [3] = details: reported in recent years; cited from earlier work
MCP-1 [4] = test: MCP-1 production by IL-10-stimulated peripheral blood mononuclear cells (ELISA); assay type: cell-based, human; details: PBMC from healthy individuals, 20 ng/ml IL-10, compound 100 μg/ml, 24 hours, FIG. 1
Experimental: Peripheral blood was collected from health individuals and the fraction containing peripheral blood mononuclear cells (PBMC) was isolated with Ficoll-Hypaque. Monocytes were inoculated into each well of a 96-well flat-bottom microtiter plate at a concentration of 1×10^6 cells/ml. RPMI1640 medium containing 10% FCS and antibiotics (penicillin and streptomycin) was used for culturing. The cells were cultured using an incubator maintained at a temperature of 37° C. and CO2 concentration of 5%. The cells were stimulated by addition of 20 ng/ml of IL-10 (acquired from PeproTech) to each well, and a solution of glycyrrhizin or its derivatives was added at a concentration of 100 μg/ml to all wells except the control well, after which culturing was continued for 24 hours. Following addition of glycyrrhizin, the culture supernatant was recovered and the amount of MCP-1 in the supernatant was quantified by ELISA. A commercially available kit (trade name: Human MCP-1 BD OptEIA ELISA Kit) was used for ELISA.

HIV [5] = details: 150 to 225 mg (6 to 9 tablets) per day, asymptomatic carriers (AC); cited from earlier work

Row | Molecule | production of MCP-1 by mononuclear cells from burn patients (MCP-1 [1]) | production of MCP-1 by mononuclear cells from AIDS patients (MCP-1 [2]) | infection sensitivity to HSV-1 infection (HSV-1; burn mice (third degree burns, 15% of body surface), HSV-1 intraperitoneal, FIG. 4) | intracellular growth of HIV (HIV [3]) | production of MCP-1 induced by IL-10 (MCP-1 [4]) | survival without the onset of AIDS (HIV [5]) | infection sensitivity to HSV-1 infection (HSV-1; normal mice dosed MCP-1 50 ng/mouse subcutaneously 2 hours before and 12 and 24 hours after infection)
1 | CC1(C)[C@@H](O[C@H]2O[C@H](C(=O)O)[C@@H](O)[C@H](O)[C@H]2O[C@@H]2O[C@H](C(=O)O)[C@@H](O)[C@H](O)[C@H]2O)CC[C@]2(C)[C@H]3C(=O)C=C4[C@@H]5C[C@@](C)(C(=O)O)CC[C@]5(C)CC[C@@]4(C)[C@]3(C)CC[C@@H]12.N [glycyrrhizin, monoammonium glycyrrhizinate] | effectively inhibited the production of MCP-1 | production of MCP-1 was found to be inhibited | recover to the same level as normal mice | inhibits the intracellular growth of HIV | inhibiting the production of MCP-1 induced by IL-10 | ≥ 10 years | 
2 | MCP-1: monocyte chemoattractant protein-1, a CC chemokine composed of 76 amino acids |  |  |  |  |  |  | 100 times higher as compared with
